How the values were obtained:
mGluR5 [1] = target: T1, mGluR5 (Rattus norvegicus, UniProt P31424); settings: Liu et al 2006, Zhang et al 2005; cited from earlier work
T1 construct: positive allosteric modulators of mGluR5 receptors in native preparations; endogenous in cells; host or cells: primary cortical astrocytes from Sprague-Dawley rat embryos (day 16 to 19)

rat mGluR5 = target: T2, rat mGluR5 (Rattus norvegicus, UniProt P31424); assay: mGluR5 assay on HEK-expressing rat mGluR5 (fluorescent cell based Ca2+ mobilization assay); settings: for activation of rat mGluR5 receptors in HEK-rat mGluR5 cell line: without co-addition of glutamate or mGluR5 agonist; for EC50: HEK-293 cells stably expressing rat mGluR5, no co-addition of glutamate, mean of at least three independent experiments in duplicate, read-out: Ca++ Flux (mean EC50)
T2 construct: expressed in transfected cells
T2 sequence (P31424 21-1171 isoform P31424-2 limits assumed): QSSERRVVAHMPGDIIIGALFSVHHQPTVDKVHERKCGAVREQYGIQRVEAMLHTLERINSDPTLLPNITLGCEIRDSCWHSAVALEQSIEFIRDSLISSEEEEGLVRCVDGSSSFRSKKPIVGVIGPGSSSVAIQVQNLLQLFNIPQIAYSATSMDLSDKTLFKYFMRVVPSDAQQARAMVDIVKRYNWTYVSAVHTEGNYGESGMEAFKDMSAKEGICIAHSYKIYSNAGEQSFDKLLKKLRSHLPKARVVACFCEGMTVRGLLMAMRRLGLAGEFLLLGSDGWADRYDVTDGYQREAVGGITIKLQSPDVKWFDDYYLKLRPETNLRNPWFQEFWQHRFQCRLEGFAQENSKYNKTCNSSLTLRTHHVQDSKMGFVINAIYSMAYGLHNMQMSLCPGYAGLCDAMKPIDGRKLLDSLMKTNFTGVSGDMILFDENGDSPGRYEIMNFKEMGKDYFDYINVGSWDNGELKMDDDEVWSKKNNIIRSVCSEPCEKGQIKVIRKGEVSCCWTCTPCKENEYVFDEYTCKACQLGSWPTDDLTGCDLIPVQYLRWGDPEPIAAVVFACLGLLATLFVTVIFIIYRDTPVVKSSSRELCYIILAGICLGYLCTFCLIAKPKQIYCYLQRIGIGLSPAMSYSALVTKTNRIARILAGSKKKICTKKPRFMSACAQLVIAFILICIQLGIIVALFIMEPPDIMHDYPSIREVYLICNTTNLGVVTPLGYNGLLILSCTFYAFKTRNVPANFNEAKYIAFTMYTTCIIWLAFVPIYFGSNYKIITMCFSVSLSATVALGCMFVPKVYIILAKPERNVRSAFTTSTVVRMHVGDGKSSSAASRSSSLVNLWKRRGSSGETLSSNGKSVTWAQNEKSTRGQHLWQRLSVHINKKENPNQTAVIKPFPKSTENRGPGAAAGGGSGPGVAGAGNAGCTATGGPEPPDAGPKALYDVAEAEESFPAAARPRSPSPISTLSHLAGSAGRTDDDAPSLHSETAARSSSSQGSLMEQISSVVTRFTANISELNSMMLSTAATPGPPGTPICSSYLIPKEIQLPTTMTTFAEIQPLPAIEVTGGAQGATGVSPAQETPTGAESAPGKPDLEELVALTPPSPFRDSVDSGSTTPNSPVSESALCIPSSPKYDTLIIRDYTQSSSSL
Summary of the method: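 HEK-293 cells stably expressing rat mGluR5, Fluo-4 loaded 60 min, in HEPES buffer pH 7.4 with sulfinpyrazone; compound (0.01 to 60 μM, 0.3% DMSO) added alone, no glutamate co-addition, and Ca2+ fluorescence followed 3 min by FLIPR. Duplicate points; EC50 from four-parameter logistic fit, mean of at least three experiments.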

[2] = test system: amphetamine-induced locomotor activation in mice; assay: Amphetamine model of schizophrenia (amphetamine-induced locomotor activity); assay type: in vivo; settings: 30 & 50 mg/kg ip, 30 min before amphetamine 3.0 mg/kg s.c., 60 min
Source text: Amphetamine-induced increases in locomotor ambulation are well known and are widely used as a model of the positive symptoms of schizophrenia. This model is based on evidence that amphetamine increases motor behaviors and can induce a psychotic state in humans (Yui et al. (2000) Ann NY Acad Sci 914:1-12). Further, it is well known that amphetamine-induced increases in locomotor activity are blocked by antipsychotics drugs that are effective in the treatment of schizophrenia (Arnt (1995) Eur J Pharmacol 283:55-62). […]
Assessment of locomotor (ambulatory) activity: The effects of compounds on amphetamine-induced locomotor activation in mice were tested. […] Locomotor activity (ambulations) was monitored by a videotracking system (VideoTrack, Viewpoint, Champagne au Mont d'Or, France) that recorded the ambulatory movements of mice. […] Mice were placed into the locomotor boxes immediately after the amphetamine injection and their locomotor activity, defined as the distance traveled in centimeters (cm), was measured for 60 minutes. […]
Statistical analyses: Statistical analyses were performed using GraphPad PRISM statistical software (GraphPad, San Diego, Calif., USA). Data were analyzed using one-way analysis of variance (ANOVA) followed by post-hoc Bonferroni-corrected multiple comparisons, where appropriate. […]

mGluR5 [3] = target: T1, mGluR5; assay: mGluR5 binding assay ([3H]-MPEP, rat brain membranes); settings: 3 nM [3H]-MPEP, 1 h at 4° C.
Source text: Activity of compounds of the invention was examined following a radioligand binding technique using whole rat brain and tritiated 2-methyl-6-(phenylethynyl)-pyridine ([^3H]-MPEP) as a ligand following similar methods than those described in Gasparini et al. (2002) Bioorg. Med. Chem. Lett. 12:407-409 and in Anderson et al. (2002) J. Pharmacol. Exp. Ther. 303 (3) 1044-1051.
Cortices were dissected out from brains of 200-300 g Sprague-Dawley rats (Charles River Laboratories, L'Arbresle, France). Tissues were homogenized in 10 volumes (vol/wt) of ice-cold 50 mM Hepes-NaOH (pH 7.4) using a Polytron disrupter (Kinematica AG, Luzern, Switzerland) and centrifuged for 30 min at 40,000 g. (4° C.). […] Protein concentration was determined by the Bradford method (Bio-Rad protein assay, Reinach, Switzerland) with bovine serum albumin as standard.
Membranes were thawed and resuspended in binding buffer containing 20 mM HEPES-NaOH, 3 mM MgCl2, 3 mM CaCl2, 100 mM NaCl, pH 7.4. […] Radioactivity was determined by liquid scintillation spectrometry using a 96-well plate reader (TopCount, Perkin-Elmer, Downers Grove, USA).
The inhibition curves were generated using the Prism GraphPad program (Graph Pad Software Inc, San Diego, USA). […] The mean of IC50 obtained from at least three independent experiments of selected molecules performed in duplicate were calculated.

T1 sequence (P31424 21-1203): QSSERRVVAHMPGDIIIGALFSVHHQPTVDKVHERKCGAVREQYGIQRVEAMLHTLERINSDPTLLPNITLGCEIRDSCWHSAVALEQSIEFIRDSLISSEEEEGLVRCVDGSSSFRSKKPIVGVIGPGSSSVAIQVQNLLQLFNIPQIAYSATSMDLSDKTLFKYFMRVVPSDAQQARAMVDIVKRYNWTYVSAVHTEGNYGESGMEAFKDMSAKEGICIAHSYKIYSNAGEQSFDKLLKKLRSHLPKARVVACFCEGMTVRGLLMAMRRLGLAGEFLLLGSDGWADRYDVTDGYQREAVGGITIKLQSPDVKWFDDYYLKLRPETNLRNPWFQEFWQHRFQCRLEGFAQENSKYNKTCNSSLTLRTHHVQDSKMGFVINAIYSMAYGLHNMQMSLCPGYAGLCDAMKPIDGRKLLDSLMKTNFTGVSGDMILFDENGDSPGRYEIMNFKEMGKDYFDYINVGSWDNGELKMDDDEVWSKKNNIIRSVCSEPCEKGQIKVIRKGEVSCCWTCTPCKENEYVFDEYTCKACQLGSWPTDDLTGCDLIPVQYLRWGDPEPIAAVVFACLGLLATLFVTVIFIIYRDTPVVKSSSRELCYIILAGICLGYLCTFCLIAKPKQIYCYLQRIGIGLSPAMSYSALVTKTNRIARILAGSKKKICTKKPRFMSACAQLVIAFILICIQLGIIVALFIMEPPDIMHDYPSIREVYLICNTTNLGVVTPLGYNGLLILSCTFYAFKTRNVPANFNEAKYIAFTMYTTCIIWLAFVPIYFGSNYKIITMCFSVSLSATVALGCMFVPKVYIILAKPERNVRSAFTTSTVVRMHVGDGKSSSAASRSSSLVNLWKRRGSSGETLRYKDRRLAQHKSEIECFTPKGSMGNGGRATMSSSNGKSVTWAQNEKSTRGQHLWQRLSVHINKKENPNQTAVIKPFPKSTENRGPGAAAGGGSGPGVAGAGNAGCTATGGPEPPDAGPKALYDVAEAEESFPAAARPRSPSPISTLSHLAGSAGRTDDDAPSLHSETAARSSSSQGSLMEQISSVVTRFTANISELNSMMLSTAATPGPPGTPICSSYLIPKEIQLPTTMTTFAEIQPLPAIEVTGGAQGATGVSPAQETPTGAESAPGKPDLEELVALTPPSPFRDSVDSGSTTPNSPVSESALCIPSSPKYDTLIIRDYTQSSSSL

SMILES	activity in rat cortical astrocytes culture in the absence of added glutamate (mGluR5 [1])	activation of rat mGluR5 receptors in HEK-rat mGluR5 cell line (rat mGluR5)	EC50 (rat mGluR5) [µM]	further results
N#Cc1cccc(C(=O)Nc2cc(-c3ccccc3)nn2-c2ccccc2)c1 [CDPPB, reference compound]	inactive	activating	–	–
O=C(Nc1ccc(Cl)cc1CN1C(=O)c2ccccc2C1=O)c1ccccc1O [CPPHA, reference compound]	inactive	activating	–	–
Fc1cccc(/C=N/N=C/c2cccc(F)c2)c1 [DFB, reference compound]	inactive	activating	–	–
Cc1oncc1C(=O)N1CCC[C@H](c2nc(-c3ccc(F)cc3)no2)C1 [Example 5, (S)-{3-[3-(4-Fluoro-phenyl)-[1,2,4]oxadiazol-5-yl]-piperidin-1-yl}-(5-methyl-isoxazol-4-yl)-methanone]	–	–	< 1	increase in locomotor activity induced by amphetamine ([2]; listed as compound # 5): significantly attenuated; increase in locomotor activity induced by amphetamine ([2]; listed as example 5): significantly attenuate
O=C(c1ccc(F)nc1)N1CCC[C@H](c2nc(-c3ccc(F)cc3)no2)C1 [Example 29, (S)-{3-[3-(4-Fluoro-phenyl)-[1,2,4]oxadiazol-5-yl]-piperidin-1-yl}-(6-fluoro-pyridin-3-yl)-methanone]	–	–	< 1	IC50 (mGluR5 [3]): < 30 µM
CN(C)c1ccc(-c2noc([C@H]3CCCN(C(=O)c4ccc(F)cc4)C3)n2)cc1 [Example 58, {(S)-3-[3-(4-Dimethylamino-phenyl)-[1,2,4]oxadiazol-5-yl]-piperidin-1-yl}-(4-fluoro-phenyl)-methanone]	–	–	> 10	melting point: 147 to 153 °C
O=C(c1ccnc(F)c1)N1CCC[C@H](c2nc(-c3ccc(F)cc3)no2)C1 [Example 77, {(S)-3-[3-(4-Fluoro-phenyl)-[1,2,4]oxadiazol-5-yl]-piperidin-1-yl}-(2-fluoro-pyridin-4-yl)-methanone]	–	–	< 1	melting point: 93 to 95 °C

Source: patent US20090197897A1, “Novel Oxadiazole Derivatives and Their Use as Positive Allosteric Modulators of Metabotropic Glutamate Receptors” (Addex Pharma SA, priority 2005, published 2009)
